Earlier results, collected in patent publication US10610500B2, “Chemosensory receptor ligand-based therapies” (Anji Pharma (US) LLC, priority 2011, dated 2020).

Target: T1, sweet receptor (Homo sapiens, UniProt Q7RTX0+Q8TE23)
T1 sequence (Q8TE23 20-839): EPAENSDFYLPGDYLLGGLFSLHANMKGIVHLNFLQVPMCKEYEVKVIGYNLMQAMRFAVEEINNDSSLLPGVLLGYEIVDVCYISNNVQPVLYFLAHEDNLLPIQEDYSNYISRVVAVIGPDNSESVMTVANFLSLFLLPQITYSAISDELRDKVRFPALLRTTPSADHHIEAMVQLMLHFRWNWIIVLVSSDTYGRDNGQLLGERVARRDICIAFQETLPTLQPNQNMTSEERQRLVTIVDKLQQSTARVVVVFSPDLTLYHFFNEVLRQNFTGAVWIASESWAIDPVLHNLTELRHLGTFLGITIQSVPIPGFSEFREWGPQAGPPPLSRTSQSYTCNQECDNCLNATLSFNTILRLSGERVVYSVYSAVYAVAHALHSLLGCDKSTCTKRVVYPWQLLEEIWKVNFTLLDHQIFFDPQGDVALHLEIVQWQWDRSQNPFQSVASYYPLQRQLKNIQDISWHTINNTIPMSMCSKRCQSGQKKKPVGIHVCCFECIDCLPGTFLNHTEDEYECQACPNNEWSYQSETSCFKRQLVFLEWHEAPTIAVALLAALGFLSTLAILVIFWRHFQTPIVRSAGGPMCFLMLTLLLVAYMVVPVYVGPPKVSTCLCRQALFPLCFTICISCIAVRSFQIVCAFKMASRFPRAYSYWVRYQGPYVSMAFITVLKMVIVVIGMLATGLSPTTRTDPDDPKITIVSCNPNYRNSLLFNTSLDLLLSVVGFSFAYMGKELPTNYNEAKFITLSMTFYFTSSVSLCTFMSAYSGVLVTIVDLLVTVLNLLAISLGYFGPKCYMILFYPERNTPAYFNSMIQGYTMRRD
T1 sequence (Q7RTX0 21-852): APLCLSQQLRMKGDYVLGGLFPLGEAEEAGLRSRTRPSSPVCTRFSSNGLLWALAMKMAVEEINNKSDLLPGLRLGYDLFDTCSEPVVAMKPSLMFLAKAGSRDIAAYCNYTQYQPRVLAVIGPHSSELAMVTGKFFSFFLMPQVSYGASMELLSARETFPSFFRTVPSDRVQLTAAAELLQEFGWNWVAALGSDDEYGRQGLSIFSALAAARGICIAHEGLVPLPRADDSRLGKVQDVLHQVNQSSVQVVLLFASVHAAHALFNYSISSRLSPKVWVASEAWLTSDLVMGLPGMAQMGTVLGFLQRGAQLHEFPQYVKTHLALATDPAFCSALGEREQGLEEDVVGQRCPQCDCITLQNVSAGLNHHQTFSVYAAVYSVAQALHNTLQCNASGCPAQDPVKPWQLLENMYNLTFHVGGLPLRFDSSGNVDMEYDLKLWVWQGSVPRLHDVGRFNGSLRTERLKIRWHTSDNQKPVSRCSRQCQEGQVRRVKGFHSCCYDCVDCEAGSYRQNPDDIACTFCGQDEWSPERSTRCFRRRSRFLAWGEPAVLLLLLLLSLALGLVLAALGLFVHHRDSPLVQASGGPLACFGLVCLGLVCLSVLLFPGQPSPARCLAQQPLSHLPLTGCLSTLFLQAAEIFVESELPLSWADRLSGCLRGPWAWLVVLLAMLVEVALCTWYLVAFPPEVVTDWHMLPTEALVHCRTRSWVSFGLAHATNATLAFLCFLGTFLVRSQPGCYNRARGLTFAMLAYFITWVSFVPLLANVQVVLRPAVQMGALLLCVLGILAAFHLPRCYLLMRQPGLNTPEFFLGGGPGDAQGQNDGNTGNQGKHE
Settings: relative sweetness on a weight comparison basis to sucrose (=1.0); ranges: relative sweetness varied with the concentration of sucrose

Point of comparison: `O=C/C=C/c1ccccc1` [Trans-Cinnamaldehyde], Sweetness/potency 50. Against it:
- C=C1C[C@@]23CC[C@H]4[C@@](C)(CCC[C@@]4(C)C(=O)O)[C@@H]2CC[C@]1(O[C@@H]1O[C@H](CO)[C@@H](O)[C@H](O)[C@H]1O[C@@H]1O[C@H](CO)[C@@H](O)[C@H](O)[C@H]1O)C3 [Steviolbioside] — higher, 90
- C=C1C[C@@]23CC[C@H]4[C@@](C)(CCC[C@@]4(C)C(=O)O[C@@H]4O[C@H](CO)[C@@H](O)[C@H](O)[C@H]4O)[C@@H]2CC[C@]1(O[C@@H]1O[C@H](CO)[C@@H](O)[C@H](O)[C@H]1O[C@@H]1O[C@H](CO)[C@@H](O)[C@H](O)[C@H]1O)C3 [Stevioside] — higher, 210
- CC[C@@H](C)C(=O)O[C@@H](C)[C@]1(O)CC[C@]2(O)[C@@H]3CC[C@H]4C[C@@H](O[C@@H]5C[C@H](O)[C@H](O[C@H]6C[C@H](OC)[C@H](O[C@H]7C[C@@H](OC)[C@H](O[C@H]8C[C@@H](OC)[C@H](O[C@@H]9O[C@H](C)[C@@H](O[C@@H]%10O[C@H](CO)[C@@H](O)[C@H](O)[C@H]%10O)[C@H](OC)[C@H]9O)[C@@H](C)O8)[C@@H](C)O7)[C@@H](C)O6)[C@@H](C)O5)CC[C@]4(C)[C@H]3C[C@@H](OC(C)=O)[C@]12C [Telosmoside A15] — higher, 1000
- C/C=C/c1ccc(OC)cc1 [trans-Anethole] — lower, 13
- Albiziasaponin B — higher, 600
- Baiyunoside — higher, 500
- Carnosifloside V — higher, 51
- Curculin — higher, 550
- Cyclocarioside A — higher, 200
- Cyclocaryoside I — higher, 250
- Pentadin — higher, 500
- Periandrin II — higher, 95
- Periandrin IV — higher, 85
- Polypodoside A — higher, 600
- Pterocaryoside A — the same, 50
- Rebaudioside B — higher, 150
- Rebaudioside C — lower, 30
- Scandenoside R6 — higher, 54

For “Brazzein: sweet protein of Pentadiplandra brazzeana Baillon (QDKCKKVYENYPVSKCQLANQCNYDCKLDKHARSGECFYDEKRNLQCICDYCEY; UniProt P56552 1-54, looked up)”, the Sweetness/potency is given as 2,000.
In the case of Monellin, the Sweetness/potency is given as 3,000.
For Thaumatin, the Sweetness/potency is given as 1,600.

Test system: L cells located in the gut
Settings: administration of metformin

For `CN(C)C(=N)N=C(N)N` [metformin], the “release of GLP-1 from the L cells” value is listed as “increases”.

Test system: gut hormones
Settings: humans

For `C=C1C[C@@]23CC[C@H]4[C@@](C)(CCC[C@@]4(C)C(=O)O[C@@H]4O[C@H](CO)[C@@H](O)[C@H](O)[C@H]4O)[C@@H]2CC[C@]1(O[C@@H]1O[C@H](CO)[C@@H](O)[C@H](O[C@@H]2O[C@H](CO)[C@@H](O)[C@H](O)[C@H]2O)[C@H]1O[C@@H]1O[C@H](CO)[C@@H](O)[C@H](O)[C@H]1O)C3` [Rebaudioside A], the “gut hormones in the circulation” value is given as “no alterations”.
